# From patent US20110003805A1, “CONCOMITANT DRUG” (TAKEDA PHARMACEUTICAL COMPANY LIMITED, priority 2008, published 2011)
# Tested on: TS (thymidine) gene expression in human breast cancer cell line BT-474
# Assay: Measurement of expression amount of TS (thymidine) by addition of compound A, TaqMan
# Type: cell-based
# Settings: BT-474 cells, 100 nmol/L, two days after addition, GAPDH as internal standard (FIG. 4)
# Protocol: Human breast cancer cell line BT-474 (ATCC (American Type Culture Collection) catalog No. HTB-20, Lasfargues EY, In Vitro 15:723-729(1979)), which is a passage cultured HER2 high expressing cell, was treated with trypsin and suspended in RPMI-1640 medium (GibcoInvitrogen) containing 10% bovine fetus serum (GibcoInvitrogen). The cell density of the cell suspension was measured by cell counter Sysmex CDA500, and the cell density was adjusted to 5×10^4 cell/mL using the aforementioned medium. The suspension was dispensed to each well of a 6 well multi-well culture plate (Corning) by 2 mL, and cultured overnight at 37° C. under 5% CO2. […] Using this cDNA as a template, the TS expression amount was measured using TaqMan Gene Expression Assays (Applied Biosystems). […] Ct method (Applied Biosystems) with GAPDH as an internal standard (FIG. 4).
compound,measurement,value
"CC(C)(O)CC(=O)NCCn1ccc2ncnc(Nc3ccc(Oc4cccc(C(F)(F)F)c4)c(Cl)c3)c21 [compound A, N-{2-[4-({3-chloro-4-[3-(trifluoromethyl)phenoxy]phenyl}amino)-5H-pyrrolo[3,2-d]pyrimidin-5-yl]ethyl}-3-hydroxy-3-methylbutaneamide]",TS expression amount,remarkably decreased
